Laboratory results as given in US8735406B2, “8-oxodihydropurine derivative” (Dainippon Sumitomo Pharma Co., Ltd., priority 2009, dated 2014).
Read-outs that look alike come from different tables or passages of the source.

Target: T1, FAAH (Rattus norvegicus, UniProt P97612)
T1 construct: Preparation of Rat Brain Membranes Preparations (FAAH Enzyme Solution); from tissue; host or cells: rat cerebrum (brain membrane preparation)
T1 sequence (P97612 1-579): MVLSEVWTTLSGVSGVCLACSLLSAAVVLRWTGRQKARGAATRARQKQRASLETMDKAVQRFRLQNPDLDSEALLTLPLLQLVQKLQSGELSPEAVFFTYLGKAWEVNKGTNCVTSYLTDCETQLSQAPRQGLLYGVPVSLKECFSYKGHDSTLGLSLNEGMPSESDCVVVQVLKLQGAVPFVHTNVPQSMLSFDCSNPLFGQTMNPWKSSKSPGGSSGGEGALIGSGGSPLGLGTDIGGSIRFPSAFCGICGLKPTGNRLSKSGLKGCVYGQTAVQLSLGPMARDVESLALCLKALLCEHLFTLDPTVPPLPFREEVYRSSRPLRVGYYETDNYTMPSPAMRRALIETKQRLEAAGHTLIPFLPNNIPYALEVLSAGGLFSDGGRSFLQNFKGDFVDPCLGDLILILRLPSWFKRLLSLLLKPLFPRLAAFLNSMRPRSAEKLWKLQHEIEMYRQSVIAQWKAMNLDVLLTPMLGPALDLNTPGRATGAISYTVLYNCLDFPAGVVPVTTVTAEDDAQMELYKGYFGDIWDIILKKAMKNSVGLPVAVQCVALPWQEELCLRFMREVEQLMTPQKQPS
Assay: Determination of FAAH inhibitory activity in rat (rat brain membrane preparations, [3H]-anandamide hydrolysis)
Format: biochemical
Method in brief: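 Compounds tested from 0.1 nM to 1 μM to derive IC50 against FAAH hydrolysis in rat brain membrane preparations (100 μg/mL). A 10-min 37 °C preincubation was followed by 10 min with [3H]-anandamide (2 nM) mixed with 2 μM unlabelled anandamide. Radioactive ethanolamine was extracted into the water/methanol layer and counted.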

[1] = rat brain membrane preparations, 100 nM test substance, read-out: FAAH Inhibition, Inhibition Rate at 100 nM
[2] = rat brain membrane preparations, test substance 0.1 nM to 1 μM, read-out: FAAH Inhibition IC50

| inhibition at 0.1 µM [1] [%] | IC50 [2] [nM] | Structure (SMILES) | also measured |
| --- | --- | --- | --- |
| 98 | 1 | COCc1ncc2c(n1)n(C)c(=O)n2C(=O)N1CC[C@H](Oc2ccc(Cl)cc2)C1 [Example 489, 7-{[(3S)-3-(4-Chlorophenoxy)pyrrolidin-1-yl]carbonyl}-2-(methoxymethyl)-9-methyl-7,9-dihydro-8H-purine-8-one] |  |
| 101 | 7 | COc1cccc(-c2ncc3c(n2)n(C)c(=O)n3C(=O)N2CC=C(/C=C/c3ccc(Cl)cc3)CC2)c1 [Example 94, 7-({4-[(E)-2-(4-Chlorophenyl)ethenyl]-3,6-dihydropyridin-1(2H)-yl}carbonyl)-2-(3-methoxyphenyl)-9-methyl-7,9-dihydro-8H-purine-8-one] |  |
|  |  | CCn1c(=O)n(C(=O)N2CC(c3ccccc3)C2)c2cnc(COC)nc21 [Example 655, 9-Ethyl-2-(methoxymethyl)-7-[(3-phenylazetidin-1-yl)carbonyl]-7,9-dihydro-8H-purine-8-one] | inhibition at 0.1 µM (at 100 nM, rat brain membrane preparations, read-out: FAAH Inhibition Inhibition Rate at 100 nM): 102%; IC50 (rat brain membrane preparations, read-out: FAAH Inhibition IC50): 10 nM |
| 99 | 1 | COCc1ncc2c(n1)n(C)c(=O)n2C(=O)N1CC(c2ccc(OCc3ccccc3)cc2)C1 [Example 456, 7-({3-[4-(Benzyloxy)phenyl]azetidin-1-yl}carbonyl)-2-(methoxymethyl)-9-methyl-7,9-dihydro-8H-purine-8-one] |  |
|  |  | COc1cccc(-c2ncc3c(n2)n(C)c(=O)n3C(=O)N(C)CCCl)c1 [Example 103, N-(2-Chloroethyl)-2-(3-methoxyphenyl)-N,9-dimethyl-8-oxo-8,9-dihydro-7H-purine-7-carboxamide] | IC50 (FAAH Inhibition IC50, rat brain membrane preparations, test substance 0.1 nM to 1 μM): 7 nM; inhibition at 0.1 µM (read-out: FAAH Inhibition, Inhibition Rate at 100 nM): 100% |
| 98 | 9 | CCCOc1ccc(CCc2ncc3c(n2)n(C(=O)N2CCC2)c(=O)n3C)cc1 [compound 564] |  |
